The source made the active and inactive calls. No cut-off for these calls is given here.

The target in the test is Cytochrome b6-f complex subunit 4 (Spinacia oleracea) (UniProt P00166). Nature of the test: Inhibition of photosynthetic electron transport protein complex in Spinacia oleracea (spinach) leaf thylakoid membranes up to 100 uM measured at 30 seconds intervals for 10 min.
Sequence of Cytochrome b6-f complex subunit 4 (Spinacia oleracea) (P00166 whole entry, looked up, one chain of several): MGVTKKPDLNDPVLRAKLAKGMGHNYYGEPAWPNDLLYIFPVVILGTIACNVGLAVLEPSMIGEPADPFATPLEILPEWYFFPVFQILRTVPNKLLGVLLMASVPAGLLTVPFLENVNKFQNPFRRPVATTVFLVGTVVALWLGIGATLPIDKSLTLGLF

As for `O=C1O/C(=C\c2ccc(Cl)cc2)C=C1Cc1ccccc1`, the inhibition result was “inactive”.

For the compound `O=C1O/C(=C\c2ccccc2O)C=C1Cc1ccccc1`, the inhibition entry is “inactive”.

For the compound `O=C1O/C(=C\c2ccc(Br)cc2)C=C1Cc1ccccc1`, the inhibition entry is “inactive”.

`N#Cc1ccc(/C=C2/C=C(Cc3ccccc3)C(=O)O2)cc1`: the inhibition entry is “inactive”.

In the case of `Cc1ccc(/C=C2/C=C(Cc3ccccc3)C(=O)O2)cc1`, the inhibition entry was “inactive”.

Take `CN(C)c1ccc(/C=C2/C=C(Cc3ccccc3)C(=O)O2)cc1`: the inhibition entry was “inactive”.

Consider `O=C1O/C(=C\c2ccc3c(c2)OCO3)C=C1Cc1ccccc1`, for which the inhibition result is “inactive”.

As for `O=C1O/C(=C\c2ccc(O)cc2)C=C1Cc1ccccc1`, the inhibition entry is “inactive”.

Consider `O=C1O/C(=C\c2ccc(-c3ccccc3)cc2)C=C1Cc1ccccc1`, for which the inhibition result was “inactive”.

For the compound `COc1ccc(/C=C2/C=C(Cc3ccccc3)C(=O)O2)cc1O`, the inhibition result is “inactive”.

For the compound `O=C1O/C(=C\c2cccc(O)c2)C=C1Cc1ccccc1`, the inhibition result is “inactive”.

For the compound `N#Cc1cccc(/C=C2/C=C(Cc3ccccc3)C(=O)O2)c1`, the inhibition result was “inactive”.

In the case of `CN(C)c1ccc(/C=C2/C=C(Cc3ccccc3)C(=O)O2)c(Cl)c1`, the inhibition result is “inactive”.

The values above are taken from ChEMBL document CHEMBL3046472, “QSAR modeling of photosynthesis-inhibiting nostoclide derivatives” (Pest Manag Sci, 2010).
